# Results taken from US8586550B2, “Thiazole derivatives as SGLT2 inhibitors and pharmaceutical composition comprising same” (Green Cross Corporation, priority 2010, dated 2013).
# Molecular target: T1, Human SGLT2 (hSGLT2) (Homo sapiens, UniProt P31639)
# T1 construct: expressed in transfected cells
# T1 sequence (P31639 1-672): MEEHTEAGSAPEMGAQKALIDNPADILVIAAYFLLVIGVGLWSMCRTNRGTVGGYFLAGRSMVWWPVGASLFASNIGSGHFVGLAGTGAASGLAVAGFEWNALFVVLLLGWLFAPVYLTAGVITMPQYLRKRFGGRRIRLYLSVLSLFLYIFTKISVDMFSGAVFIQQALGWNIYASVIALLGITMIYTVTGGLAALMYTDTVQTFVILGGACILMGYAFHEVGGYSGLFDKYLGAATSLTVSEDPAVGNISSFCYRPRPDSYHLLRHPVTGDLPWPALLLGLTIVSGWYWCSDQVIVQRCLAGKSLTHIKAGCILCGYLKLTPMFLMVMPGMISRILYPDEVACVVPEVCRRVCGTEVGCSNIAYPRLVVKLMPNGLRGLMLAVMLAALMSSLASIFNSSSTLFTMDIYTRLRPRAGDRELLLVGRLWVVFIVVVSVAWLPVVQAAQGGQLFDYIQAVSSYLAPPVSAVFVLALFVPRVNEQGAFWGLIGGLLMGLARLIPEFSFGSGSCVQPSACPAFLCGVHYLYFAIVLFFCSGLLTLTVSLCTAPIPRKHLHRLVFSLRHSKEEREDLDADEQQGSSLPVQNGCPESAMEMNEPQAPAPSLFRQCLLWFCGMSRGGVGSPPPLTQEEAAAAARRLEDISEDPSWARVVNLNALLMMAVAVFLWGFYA
# Assay: Sodium-dependent glucose transport (14C-AMG uptake) assay in CHO cells stably expressing hSGLT2
# Format: cell-based
# Conditions: CHO cells expressing hSGLT2, 14C-AMG uptake, 37° C. for 2 h; single determinations; read-out: hSGLT2 Inhibitory Activity IC50
# Procedure, shortened: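 CHO cells stably expressing human SGLT2, preincubated 10 min at 37 °C in sodium-free choline buffer, then 2 h at 37 °C in Na+ buffer with 1 mM AMG plus 8 μM 14C-AMG and inhibitor. Washed cells counted by scintillation; IC50 by nonlinear regression.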
structure (smiles),measurement,value
"OC[C@H]1O[C@@H](c2cc(Cc3ncc(-c4ccco4)s3)c3ccccc3c2)[C@H](O)[C@@H](O)[C@@H]1O [Example 104, (2S,3R,4R,5S,6R)-2-(4-((5-(Furan-2-yl)thiazol-2-yl)methyl)naphthalen-2-yl)-6-(hydroxymethyl)-tetrahydro-2H-pyran-3,4,5-triol]",IC50,100 nM
"CCc1cnc(Cc2cc([C@@H]3O[C@H](CO)[C@@H](O)[C@H](O)[C@H]3O)cc3ccccc23)s1 [Example 105, (2S,3R,4R,5S,6R)-2-(4-((5-Ethylthiazol-2-yl)methyl)naphthalen-2-yl)-6-(hydroxymethyl)-tetrahydro-2H-pyran-3,4,5-triol]",IC50,243 nM
"CCOC(=O)c1cnc(Cc2cc([C@@H]3O[C@H](CO)[C@@H](O)[C@H](O)[C@H]3O)ccc2Cl)s1 [Example 106, Ethyl 2-(2-chloro-5-((2S,3R,4R,5S,6R)-3,4,5-trihydroxy-6-(hydroxymethyl)-tetrahydro-2H-pyran-2-yl)benzyl)thiazole-5-carboxylate]",IC50,50.3 nM
"OC[C@H]1O[C@@H](c2ccc(Cl)c(Cc3ncc(-c4nncs4)s3)c2)[C@H](O)[C@@H](O)[C@@H]1O [Example 107, (2S,3R,4R,5S,6R)-2-(3-((5-(1,3,4-Thiadiazol-2-yl)thiazol-2-yl)methyl)-4-chlorophenyl)-6-(hydroxymethyl)-tetrahydro-2H-pyran-3,4,5-triol]",IC50,14 nM
"N#Cc1ccc([C@@H]2O[C@H](CO)[C@@H](O)[C@H](O)[C@H]2O)cc1Cc1ncc(-c2ccco2)s1 [Example 108, 2-((5-(Furan-2-yl)thiazol-2-yl)methyl)-4-((2S,3R,4R,5S,6R)-3,4,5-trihydroxy-6-(hydroxymethyl)-tetrahydro-2H-pyran-2-yl)benzonitrile]",IC50,36.7 nM
"OC[C@H]1O[C@@H](c2ccc(C3CC3)c(Cc3ncc(-c4ccco4)s3)c2)[C@H](O)[C@@H](O)[C@@H]1O [Example 110, (2S,3R,4R,5S,6R)-2-(4-Cyclopropyl-3-((5-(furan-2-yl)thiazol-2-yl)methyl)phenyl)-6-(hydroxymethyl)-tetrahydro-2H-pyran-3,4,5-triol]",IC50,54.8 nM
"OC[C@H]1O[C@@H](c2cccc(Cc3ncc(-c4ccco4)s3)c2)[C@H](O)[C@@H](O)[C@@H]1O [Example 111, (2S,3R,4R,5S,6R)-2-(3-((5-(Furan-2-yl)thiazol-2-yl)methyl)phenyl)-6-(hydroxymethyl)-tetrahydro-2H-pyran-3,4,5-triol]",IC50,22.6 nM
"OC[C@H]1O[C@@H](c2cc(Cc3ncc(-c4ccco4)s3)c(Cl)cc2O)[C@H](O)[C@@H](O)[C@@H]1O [Example 112, (2S,3R,4R,5S,6R)-2-(4-Chloro-5-((5-(furan-2-yl)thiazol-2-yl)methyl)-2-hydroxyphenyl)-6-(hydroxymethyl)-tetrahydro-2H-pyran-3,4,5-triol]",IC50,0.797 nM
"COCCOc1cc(Cl)c(Cc2ncc(-c3ccco3)s2)cc1[C@@H]1O[C@H](CO)[C@@H](O)[C@H](O)[C@H]1O [Example 117, (2S,3R,4R,5S,6R)-2-(4-Chloro-5-((5-(furan-2-yl)thiazol-2-yl)methyl)-2-(2-methoxyethoxy)phenyl)-6-(hydroxymethyl)-tetrahydro-2H-pyran-3,4,5-triol]",IC50,5.55 nM
"OCCOc1cc(Cl)c(Cc2ncc(-c3ccco3)s2)cc1[C@@H]1O[C@H](CO)[C@@H](O)[C@H](O)[C@H]1O [Example 121, (2S,3R,4R,5S,6R)-2-(4-Chloro-5-((5-(furan-2-yl)thiazol-2-yl)methyl)-2-(2-hydroxyethoxy)phenyl)-6-(hydroxymethyl)tetrahydro-2H-pyran-3,4,5-triol]",IC50,1.51 nM
"OC[C@H]1O[C@@H](c2cc(Cc3ncc(-c4ccco4)s3)c(Cl)cc2OCCn2cncn2)[C@H](O)[C@@H](O)[C@@H]1O [Example 122, (2S,3R,4R,5S,6R)-2-(2-(2-(1H-1,2,4-Triazol-1-yl)ethoxy)-4-chloro-5-((5-(furan-2-yl)thiazol-2-yl)methyl)phenyl)-6-(hydroxymethyl)-tetrahydro-2H-pyran-3,4,5-triol]",IC50,131 nM
